Data on one molecule can be found in US8765994B2, “Ship 1 modulators” (The University of British Columbia, priority 2001, dated 2014).

For one test, the system named is antiplasmodial. As to conditions: reported in literature; cited from earlier work.
The next test has as its system antitrypanosomal. Particulars: reported in literature; cited from earlier work.
The target of the next test is T1, SHIP 1 enzyme (Homo sapiens, UniProt Q92835).
T1 construct: hemagglutinin (HA); hexahistidine (His6); made in house
T1 sequence (Q92835 1-1189): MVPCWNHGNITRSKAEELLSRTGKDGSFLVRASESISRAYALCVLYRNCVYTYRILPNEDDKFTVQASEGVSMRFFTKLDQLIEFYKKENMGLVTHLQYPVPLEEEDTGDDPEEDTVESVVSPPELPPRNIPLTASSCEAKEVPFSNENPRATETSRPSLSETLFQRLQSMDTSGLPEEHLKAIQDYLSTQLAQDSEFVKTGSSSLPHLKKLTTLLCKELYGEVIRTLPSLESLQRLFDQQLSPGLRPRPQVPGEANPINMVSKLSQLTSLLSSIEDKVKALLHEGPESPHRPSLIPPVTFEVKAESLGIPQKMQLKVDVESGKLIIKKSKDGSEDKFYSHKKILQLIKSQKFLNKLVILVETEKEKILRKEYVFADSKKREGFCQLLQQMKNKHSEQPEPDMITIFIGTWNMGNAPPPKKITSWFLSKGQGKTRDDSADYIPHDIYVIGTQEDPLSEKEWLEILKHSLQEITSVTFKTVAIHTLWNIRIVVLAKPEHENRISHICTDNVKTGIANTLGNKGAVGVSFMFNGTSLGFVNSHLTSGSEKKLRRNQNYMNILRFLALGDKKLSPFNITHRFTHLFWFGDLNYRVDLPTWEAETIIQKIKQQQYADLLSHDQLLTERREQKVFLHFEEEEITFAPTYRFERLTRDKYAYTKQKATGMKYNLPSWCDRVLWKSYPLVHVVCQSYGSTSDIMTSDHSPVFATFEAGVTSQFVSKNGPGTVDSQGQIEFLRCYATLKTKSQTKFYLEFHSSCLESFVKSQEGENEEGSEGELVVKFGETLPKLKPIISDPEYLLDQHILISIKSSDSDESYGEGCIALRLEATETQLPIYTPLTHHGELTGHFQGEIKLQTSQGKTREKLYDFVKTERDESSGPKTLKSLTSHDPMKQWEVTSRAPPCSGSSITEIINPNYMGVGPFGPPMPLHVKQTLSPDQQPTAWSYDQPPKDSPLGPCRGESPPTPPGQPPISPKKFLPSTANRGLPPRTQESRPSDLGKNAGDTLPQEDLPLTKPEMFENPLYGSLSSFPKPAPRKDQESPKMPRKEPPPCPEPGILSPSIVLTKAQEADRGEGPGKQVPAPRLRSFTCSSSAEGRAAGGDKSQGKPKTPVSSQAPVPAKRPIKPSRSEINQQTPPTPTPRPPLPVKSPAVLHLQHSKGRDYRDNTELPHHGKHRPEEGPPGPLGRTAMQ
Description: SHIP 1 enzyme assay (inorganic phosphate release, malachite green). The test is classed as biochemical. Particulars: FIG. 1. How it is done: The assay was performed in 96-well microtitre plates. SHIP 1 enzyme was produced with a hemagglutinin and a hexahistidine tag, from a mammalian expression vector. The His tag was employed to enhance purification. SHIP 1 enzyme (10 ng) was incubated with extract or DMSO for 15 minutes at room temperature before addition of 200 µM inositol-1,3,4,5-tetrakisphosphate. The reaction was allowed to proceed for 20 minutes at 37 degrees C. The amount of inorganic phosphate released was then assessed by the addition of malachite green reagent followed by an absorbance measurement at 650 nm.

For a further test, the system named is SHIP 1−/− macrophages. Description: Macrophage NO release assay in SHIP 1-/- macrophages. Type of test: cell-based. Particulars: FIG. 2. On the procedure: For the NO release assay, wild-type or SHIP 1−/− macrophage cells were aliquoted into microtitre plates (5×10^4/well) and activated with […] endotoxin (LPS) in the presence or absence of test compound or DMSO carrier. The cells were incubated at 37° C., 5% CO2 for 24 hours and the culture supernatant was removed for NO determination using the Griess reagent. Alternatively, J774.1a macrophage cells were treated with 10 ng/ml of test compound dissolved in DMSO for 40 minutes prior to the addition of LPS. Culture supernatants were collected after 24 hr. for determination of NO concentration using the Griess reagent.

Test [1] has as its system bone marrow derived mast cells. Briefly: Mast cell activation assay (β-hexosaminidase release). Type of test: cell-based. As to conditions: FIG. 3. How it is done: For the mast cell activation assay, bone marrow derived mast cells were incubated at 4° C. with anti-DNP IgE for 1 hr. They were then washed twice with 23° C. Tyrode's buffer, and incubated in the presence of test compound or vehicle control for 30 minutes before a 15 minute treatment with DNP-human serum albumin. The degree of degranulation was determined by measuring the release of β-hexosaminidase.

In the case of `COC(=O)c1cc(O)c(O)c2c1[C@]1(C)CC[C@H]3C(C)(C)CCC[C@]3(C)[C@H]1C2` [Pelorol, pelorol], the antiplasmodial effects entry in the test with antiplasmodial was “weak”. Besides, in the test on antitrypanosomal, the antitrypanosomal effects result is listed as “weak”. At SHIP 1 enzyme, the “Activation of SHIP 1 in enzyme assay (assay-guided fractionation)” value is listed as “active compound”. Moreover, the “Inhibition of NO release in SHIP 1−/− macrophages” value with SHIP 1−/− macrophages was “not observed”. The “IgE induced mast cell degranulation” value in test [1] was “significantly reduced”.
